According to patent US20120219615A1, “Therapeutic Use of a TLR Agonist and Combination Therapy” (The Trustees of the University of Pennsylvania, priority 2010, published 2012):

Test system: OVCAR5 cells
Assay: OVCAR5 apoptosis by annexin-V and 7AAD staining
Type: cell-based, human
Method: Cell viability Annexin V/7AAD: To detect apoptosis, tumor cells were stained with annexin V/7AAD (BD Pharmingen #559763). Apoptotic cells were analyzed by flow cytometry according to the manufacturer's protocol. Briefly, OVCAR5 cells grown and subjected to different treatments were collected and pelleted at 1200 rpm and then washed twice with ice-cold PBS and re-suspended in a binding buffer (Pharmingen #51-66121 E) at a concentration of 1×10^6 cells/mL; 100 μL of the solution (1×10^5 cells) was transferred to each of two 5-mL culture tubes. Five μL of annexin V-PE (Pharmingen #51-65875Y) and added to each 100 μL solution, gently vortexed, incubated for 15 min at room temperature in the dark, washed with PBS, incubated with 5 μL of 7AAD (BD Pharmingen #51-68981E) for 10 minutes, and analyzed by FACS within 1 h.
Besides tumor-specific CTLs, TLR8 activation may also invoke innate anti-tumor responses, including the release of soluble mediators such as members of the TNF family, which can act directly on tumor cells to induce apoptosis. […] Expression of the TNFα receptor 1 (TNFR1) in OVCAR5 cells was tested and documented by Western blot (FIG. 5C). During the sensitivity test of OVCAR5 cells to TNFα, cells were incubated for 24 hours with 20 ng/ml of TNFα, a dose that exerts direct cytotoxic effects. […]

TNFα
TNFα-mediated apoptosis of OVCAR5 cells (20 ng/ml TNFα, 24 hours): resistant to TNFα-mediated apoptosis
apoptosis of OVCAR5 cells (PLD 1 μg/mL 24 h pre-incubation, then TNFα 20 ng/ml 12 h, or control media): minimal apoptosis
